Laboratory results: patent publication US20250051286A1, “SMALL MOLECULE INHIBITORS OF PR3 AND HNE AND USES THEREOF” (ORIXA THERAPEUTICS LLC, priority 2021, published 2025)
No end group written: not given here.

Experiments:
[1] = Treatment of Alpha-1 Antitrypsin Deficiency patient (Example 4); format: in vivo, human; details: orally 50 mg once per day; within two weeks
Excerpt: In this example, a patient is diagnosed with AATD after presenting symptoms related to difficulty breathing and mild jaundice. […] The patient receives conventional therapy (e.g., bronchodilators, inhaled corticosteroids, pulmonary rehabilitation and supplemental oxygen). […] This treatment leads to some improvement, but the patient returns to the clinic seeking an alternative treatment.
The treating physician administers a compound of Formula DCT-5A to the patient: […]
The patient is administered the drug orally (i.e., 50 mg, once per day). Within two weeks, the signs/symptoms of AATD are resolved by about 80% and the patient appears in good health. The patient resumes the treatment and is periodically monitored for changes in their condition.

[2] = Treatment of severe inflammation, post-surgery patient (Example 5); format: in vivo, human; details: intravenously 5 mcg/minute for 1 hour, second dose after 24 hours; within two days
Description: In this example, a patient is recovering from surgery following a traumatic vehicle accident. The treating physician anticipates further complications such as acute respiratory distress syndrome (ARDS) and (multiple) organ failure. To prevent this, the treating physician administers a compound of Formula DCT-5A to the patient. The patient is administered the drug intravenously (i.e., 5 mcg/minute for 1 hour). The patient is administered a second dose after 24 hours. […] The patient resumes the treatment and is periodically monitored for changes in their condition.

[3] = Treatment of Granulomatosis with Polyangiitis patient (Example 6); format: in vivo, human; details: GPA patient; orally 50 mg once per day; within one week
Description: In this example, a patient complains of several symptoms including sinus pain, cough, fever, joint aches, blood in urine, and hearing loss. A physician diagnosis them with GPA after analyzing diagnostic markers.
The treating physician anticipates further complications such as acute respiratory distress syndrome (ARDS) and (multiple) organ failure. To prevent this, the treating physician administers a compound of Formula DCT-5A to the patient. The patient is administered the drug orally (i.e., 50 mg, once per day). Within one week, the signs/symptoms of AATD are resolved by about 90% and the patient appears in good health. The patient resumes the treatment and is periodically monitored for changes in their condition.

[4] = Treatment of PR3 positive ulcerative colitis patient (Example 7); format: in vivo, human; details: intravenously 5 mcg/minute for 1 hour, second dose after 24 hours; within two days
Description: In this example, a patient is admitted to a hospital with cough and fever (over 39.0° C.). About one month prior, they had presented with fever (over 39.0° C.), diarrhea and bloody bowel discharge. Upon admission, their hemoglobin was 8.9 g/dl and the serum C-reactive protein level was 6.8 mg/dl. […] Further, the patient tested positive for PR3-ANCA serological marker.
The treating physician administers a compound of Formula DCT-5A to the patient. The patient is administered the drug intravenously (i.e., 5 mcg/minute for 1 hour). The patient is administered a second dose after 24 hours. […] Thereafter, the patient is administered the drug orally (50 mg per day). The patient resumes the treatment and is periodically monitored for changes in their condition.

[5] = CF patients in an exacerbated state of inflammation; cited from earlier work
[6] = DSS-induced mouse model of UC; cited from earlier work

## N=C(N)NCCC(CCCc1ccc(F)cc1)C(=O)NN1CN(CCCc2ccccc2)[C@H](Cc2ccc(O)cc2)C1=O (stereo partly shown) [DCT-5A]
[1]
  signs/symptoms of AATD resolved: about 80%
[2]
  clinical course of the patient: shows signs of improvement
[3]
  signs/symptoms of AATD resolved: about 90%
[4]
  clinical course of the patient: shows signs of improvement

## A1PI: α1-proteinase inhibitor, a serpin; endogenous inhibitor of neutrophilic serine proteinases
[5]
  effect on IL6, IL1β and NE activity: decrease

## elafin: polypeptide inhibitor of some peptidases and elastases; inhibits HNE, PR3 and pancreatic elastase (AQEPVKGPVSTKPGSCPIILIRCAMLNPPNRCLKDTDCPGIKKCCEGSCGMACFVPQ; ends and bridges not checked; cysteine pairing not given here; UniProt P19957 61-117, looked up)
[6]
  reducing inflammation: successful in reducing inflammation in a dose-dependent manner

B1: SLPI: locally produced chelonianin; inhibits HNE but not PR3 (protein, UniProt P03973 26-132, looked up)
Antileukoproteinase: SGKSFKAGVCPPKKSAQCLRYKKPECQSDWQCPGKKRCCPDTCGIKCLDPVDTPNPTRRKPGKCPVTYGQCLMLNPPNFCEMDGQCKRDLKCCMGMCGKSCVSPVKA
[6]
  reducing inflammation: also successful
